Measured values as given in patent US11352350B2, “IRAK degraders and uses thereof” (Kymera Therapeutics, Inc., priority 2018, dated 2022).
Like-named read-outs stand apart in the source and are kept apart here.

How the values were obtained:
AIOLOS = AIOLOS (Homo sapiens (Human), UniProt Q96SW2+Q9UKT9); experiment: AIOLOS degradation in OCI-LY10 (DC50); assay type: cell-based
OCI-LY10 = OCI-LY10 viability, CTG; assay type: cell-based; settings: for IC50: Homo sapiens, OCI-Ly10
IRAK4 = IRAK4 (Homo sapiens (Human), UniProt Q9NWZ3); experiment: IRAK4 degradation in human whole blood lymphocyte - flow cytometry; assay type: cell-based; settings: read-out: IRAK4 degradation in whole blood lymphocyte-Flow cytometry: Average external Abs IC50
Chain of IRAK4 (Q9NWZ3 whole entry): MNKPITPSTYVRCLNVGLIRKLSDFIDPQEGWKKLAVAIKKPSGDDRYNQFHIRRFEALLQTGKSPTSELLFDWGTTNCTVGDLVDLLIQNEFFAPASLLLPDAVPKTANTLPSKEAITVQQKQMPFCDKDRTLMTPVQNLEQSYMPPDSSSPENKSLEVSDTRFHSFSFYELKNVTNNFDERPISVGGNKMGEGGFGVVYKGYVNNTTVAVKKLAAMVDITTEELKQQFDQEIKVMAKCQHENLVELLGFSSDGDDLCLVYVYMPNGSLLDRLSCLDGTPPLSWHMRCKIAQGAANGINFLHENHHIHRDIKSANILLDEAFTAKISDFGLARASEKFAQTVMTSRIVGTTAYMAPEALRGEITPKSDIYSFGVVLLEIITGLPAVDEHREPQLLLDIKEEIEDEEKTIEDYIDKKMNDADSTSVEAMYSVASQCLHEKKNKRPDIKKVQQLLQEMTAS
Summary of the method: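 Fresh heparinized human whole blood dosed (10-point, 5-fold, 0.1% DMSO) for 20 h or 4 h at 37 °C, then fixed, stained and IRAK4 MFI quantified by flow in CD14+ monocytes and CD14− lymphocytes. DC50 and Dmax via 4-parameter logistic fit normalized to DMSO and 10 μM control.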

TNFα = experiment: Human PBMC LPS TNFα assay; assay type: cell-based; settings: hPBMC, LPS stimulation, read-out: IRAK4 hPBMC LPS TNF-α inhibition: Average external-IC50
Summary of the method: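 Thawed human PBMCs (200,000/well) were pretreated 20 h at 37 °C with compound (8-point, 5-fold dilutions from 2 μM), then stimulated with 100 ng/ml LPS for 5 h. Supernatant TNFα was measured by MSD V-plex, normalized to LPS-stimulated and unstimulated controls, and IC50 obtained by free-fit 4-parameter logistic regression.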

OCI-LY10 cells = experiment: In vitro combination studies in OCI-LY10 (Chou-Talalay); assay type: cell-based, human
Description: The ABC-DLBCL cell line OCI-LY10 was MV4-11 cells were maintained in IMDM (Invitrogen, supplemented with 20% heat inactivated fetal bovine serum (Life Technologies, Grand Island, N.Y) plus+BME. Cultures were maintained in a humidified atmosphere including 5% CO2. Studies were performed using OCI-LY10 cells in vitro to evaluate the anti-proliferative effect of a combination of two agents together on cell growth. The cell counts were measured by ATP quantitation using the Promega Cell Titer Glo kit and luminescence values corresponded to the amount of ATP in a given well. Compounds evaluated for synergy were tested in a range which was bracketed around the IC50's. The compounds were plated to a 384 well plate in a matrix format which includes increasing concentrations of each drug in the combination in a constant ratio, in addition to the effect of each compound alone in the study. […] DMSO concentration was less than 0.2% v/v.
The drug combination analysis was performed utilizing the Chou-Talalay method [Chou TC Pharmacological Reviews 2006]. Maximum and minimum inhibition (DMSO alone) controls were used in each plate to calculate fraction affected (Fa) of a test well. […] Synergy was determined using the software package Calcusyn by Biosoft. Graphs representing values of combination index (CI) versus Fractional effect (Fa) known as Fa-CI plots were generated and synergy was evaluated.

Chain of AIOLOS (Q9UKT9 whole entry): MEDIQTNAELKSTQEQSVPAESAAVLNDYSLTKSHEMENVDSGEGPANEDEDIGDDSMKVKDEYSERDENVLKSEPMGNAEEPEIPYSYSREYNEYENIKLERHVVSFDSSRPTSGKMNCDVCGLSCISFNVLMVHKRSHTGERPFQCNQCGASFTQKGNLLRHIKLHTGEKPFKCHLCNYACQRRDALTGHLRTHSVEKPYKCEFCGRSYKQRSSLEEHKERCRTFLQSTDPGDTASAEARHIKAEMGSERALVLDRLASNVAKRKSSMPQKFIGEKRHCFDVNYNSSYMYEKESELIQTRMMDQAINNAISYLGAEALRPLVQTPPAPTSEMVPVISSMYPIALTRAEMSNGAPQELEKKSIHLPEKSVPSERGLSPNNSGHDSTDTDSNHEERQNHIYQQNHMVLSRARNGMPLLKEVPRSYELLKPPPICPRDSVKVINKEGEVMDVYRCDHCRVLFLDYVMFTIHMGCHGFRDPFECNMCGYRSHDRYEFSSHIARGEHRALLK
Chain of AIOLOS (Q96SW2 whole entry): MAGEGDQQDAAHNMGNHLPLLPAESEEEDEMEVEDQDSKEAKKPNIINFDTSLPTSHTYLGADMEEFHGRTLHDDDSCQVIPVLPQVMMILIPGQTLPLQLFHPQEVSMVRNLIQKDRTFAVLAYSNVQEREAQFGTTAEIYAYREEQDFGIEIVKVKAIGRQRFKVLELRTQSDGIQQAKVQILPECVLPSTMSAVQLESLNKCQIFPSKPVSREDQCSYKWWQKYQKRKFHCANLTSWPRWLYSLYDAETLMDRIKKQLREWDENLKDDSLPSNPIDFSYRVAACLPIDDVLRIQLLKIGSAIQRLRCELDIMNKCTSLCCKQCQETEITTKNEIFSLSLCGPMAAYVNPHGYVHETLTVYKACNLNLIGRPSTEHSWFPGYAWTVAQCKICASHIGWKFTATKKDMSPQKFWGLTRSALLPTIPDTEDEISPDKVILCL
Chain of AIOLOS (Q16531 whole entry partner): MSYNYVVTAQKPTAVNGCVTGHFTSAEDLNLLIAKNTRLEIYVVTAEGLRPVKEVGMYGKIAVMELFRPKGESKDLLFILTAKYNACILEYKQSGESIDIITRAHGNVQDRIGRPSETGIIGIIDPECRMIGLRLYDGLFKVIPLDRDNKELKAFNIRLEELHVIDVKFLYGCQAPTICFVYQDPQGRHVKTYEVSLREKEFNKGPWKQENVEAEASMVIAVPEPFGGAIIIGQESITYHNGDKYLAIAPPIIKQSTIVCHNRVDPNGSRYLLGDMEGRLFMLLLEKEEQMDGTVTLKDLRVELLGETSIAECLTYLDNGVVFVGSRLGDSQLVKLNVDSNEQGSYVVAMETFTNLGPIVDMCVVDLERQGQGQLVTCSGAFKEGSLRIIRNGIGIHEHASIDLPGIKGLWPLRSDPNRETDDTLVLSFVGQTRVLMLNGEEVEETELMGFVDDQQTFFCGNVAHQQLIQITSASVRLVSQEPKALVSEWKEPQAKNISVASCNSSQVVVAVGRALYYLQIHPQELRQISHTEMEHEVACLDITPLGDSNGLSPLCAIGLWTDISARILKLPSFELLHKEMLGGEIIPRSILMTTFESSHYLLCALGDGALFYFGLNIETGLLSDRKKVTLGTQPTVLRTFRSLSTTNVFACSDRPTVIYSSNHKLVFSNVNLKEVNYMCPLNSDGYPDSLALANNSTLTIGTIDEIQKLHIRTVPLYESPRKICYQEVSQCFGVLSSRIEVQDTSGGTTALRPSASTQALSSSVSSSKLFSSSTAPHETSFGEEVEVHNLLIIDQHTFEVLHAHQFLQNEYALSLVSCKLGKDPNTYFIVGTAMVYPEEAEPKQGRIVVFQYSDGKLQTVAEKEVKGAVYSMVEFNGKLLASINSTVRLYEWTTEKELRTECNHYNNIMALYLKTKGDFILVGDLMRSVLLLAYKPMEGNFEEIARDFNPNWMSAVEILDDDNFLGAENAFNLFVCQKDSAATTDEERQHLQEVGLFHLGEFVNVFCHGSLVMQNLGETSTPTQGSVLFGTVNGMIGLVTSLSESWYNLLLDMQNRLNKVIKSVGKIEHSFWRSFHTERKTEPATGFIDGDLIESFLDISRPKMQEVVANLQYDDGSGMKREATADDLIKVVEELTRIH

Structure (SMILES) | DC50 (AIOLOS) [nM] | IC50 (OCI-LY10; MYD88 MUT, read-out: OCI-LY10 CTG IC50) [nM] | IC50 (OCI-LY10; MYD88 Mutant Lines, read-out: OCI-LY10 Viability, CTG IC50) [nM] | DC50 (IRAK4) [nM] | IC50 (TNFα) [nM] | Cell Titer Glo assay, combination effect (OCI-LY10; combination of ibrutinib and degrader I-30 (FIG. 12B)) | apoptosis, combined with a BTK inhibitor (OCI-LY10 cells; OCI-LY10 bearing MYD88 L265P and CD79 mutations, within 72 h, FIG. 12) | synergy with BTK inhibition vs cell viability (OCI-LY10 cells; four day Cell Titer Glo read out)
CN(C[C@H]1CC[C@H](n2cc(NC(=O)c3coc(-c4ccnc(NCC5CC5)c4)n3)c(C(F)F)n2)CC1)C1CCN(Cc2cccc3c2n(C)c(=O)n3C2CCC(=O)NC2=O)CC1 (stereo partly shown) [I-75, 2-(2-((cyclopropylmethyl)amino)pyridin-4-yl)-N-(3-(difluoromethyl)-1-((1r,4r)-4-(((1-((1-(2,6-dioxopiperidin-3-yl)-3-methyl-2-oxo-2,3-dihydro-1H-benzo[d]imidazol-4-yl)methyl)piperidin-4-yl)(methyl)amino)methyl)cyclohexyl)-1H-pyrazol-4-yl)oxazole-4-carboxamide] | > 100 | 11 | 11 | 50 to 100 | < 50 | – | – | –
CN(CCCOCCCc1cccc2c1n(C)c(=O)n2C1CCC(=O)NC1=O)C[C@H]1CC[C@H](n2cc(NC(=O)c3coc(-c4ccnc(NCC5CC5)c4)n3)c(C(F)F)n2)CC1 (mixture of isomers) [I-30, 2-[2-(Cyclopropylmethylamino)-4-pyridyl]-N-[3-(difluoromethyl)-1-[4-[[3-[3-[1-(2,6-dioxo-3-piperidyl)-3-methyl-2-oxo-benzimidazol-4-yl]propoxy]propyl-methyl-amino]methyl]cyclohexyl]pyrazol-4-yl] oxazole-4-carboxamide] | – | – | – | < 50 | 50 to 100 | synergism | greater than additive increase in apoptosis | synergistic
